Laboratory results from BindingDB's records for doi:10.1016/j.bmcl.2003.10.074 (University of Kentucky, 2004).

Test: Binding affinity towards blood brain barrier choline transporter at 10 uM using rat brain

Row | Ki [µM] | SMILES
1 | 250 | CCCC[n+]1ccccc1 [1-Butyl-pyridinium]
2 | 10 | CCCCCCCC[N+](C)(C)CCO [(2-Hydroxy-ethyl)-dimethyl-octyl-ammonium]

The next lines start with the compound.

Row | SMILES | Ki [µM]
3 | CCCCCCCCCC[n+]1cccc([C@@H]2CCCN2C)c1 [1-Decyl-3-((S)-1-methyl-pyrrolidin-2-yl)-pyridinium; iodide] | 27
4 | CCCCCCCC[n+]1ccccc1 [1-Octyl-pyridinium; iodide] | 250
5 | CCCCCCCC[n+]1cccc([C@@H]2CCCN2C)c1 [(S)-3-(1-methylpyrrolidin-2-yl)-1-octylpyridinium iodide] | 49
